According to ChEMBL document CHEMBL1649575, “Antimicrobial susceptibility and mutations involved in clarithromycin resistance in Helicobacter pylori isolates from patients in the western central region of Colombia” (2009):
Active and inactive are the calls of the source. The calls are words filed in the database; no cut-off is given here.

Tests used:
Helicobacter pylori [1] = assay: Antimicrobial activity against Helicobacter pylori clinical isolate by Etest; assay type: functional, organism-based
Helicobacter pylori [2] = assay: Antimicrobial activity against Helicobacter pylori clinical isolate expressing 23S rRNA A2143G mutant by Etest; assay type: functional, organism-based
Helicobacter pylori [3] = assay: Antimicrobial activity against Helicobacter pylori clinical isolate expressing 23S rRNA A2142G mutant by Etest; assay type: functional

| SMILES | Activity (Helicobacter pylori [1]) | Activity (Helicobacter pylori [2]) | MIC (Helicobacter pylori [3]) [µg/mL] |
| --- | --- | --- | --- |
| CN(C)[C@@H]1C(O)=C(C(N)=O)C(=O)[C@@]2(O)C(O)=C3C(=O)c4c(O)cccc4[C@@](C)(O)[C@H]3C[C@@H]12 | Active | – | – |
| CC[C@H]1OC(=O)[C@H](C)[C@@H](O[C@H]2C[C@@](C)(OC)[C@@H](O)[C@H](C)O2)[C@H](C)[C@@H](O[C@@H]2O[C@H](C)C[C@H](N(C)C)[C@H]2O)[C@](C)(OC)C[C@@H](C)C(=O)[C@H](C)[C@@H](O)[C@]1(C)O [CLARITHROMYCIN] | – | inactive | > 256 |
